From ChEMBL document CHEMBL3351686, “Facile and diastereoselective synthesis of 3,2'-spiropyrrolidine-oxindoles derivatives, their molecular docking and antiproliferative activities” (2015) come the findings set out here.

Converted amounts (≈) assume the structure as drawn.

In one test the test system is Salmonella typhimurium. Description: Antibacterial activity against Salmonella typhimurium MTCC 1251 assessed as zone of inhibition at 1 mg/disc after 24 hrs by disc diffusion method. Type of test: functional, Salmonella enterica subsp. enterica serovar Typhimurium.
Conditions: not given
Turning to `CN1C[C@](C#N)(C(=O)c2c[nH]c3ccccc23)[C@@H](c2cn(-c3ccccc3)nc2-c2ccccc2)[C@@]12C(=O)Nc1ccc([N+](=O)[O-])cc12`, the “inhibition zone (IZ)” value stood at 12 mm.

Turning to `C=CCN1C(=O)[C@]2(c3ccccc31)[C@H](c1cn(-c3ccccc3)nc1-c1ccccc1)[C@@](C#N)(C(=O)c1c[nH]c3ccccc13)C1CCCN12` (stereo not given in full), the “inhibition zone (IZ)” value was determined as 10 mm.

In the next test the test system is Klebsiella pneumoniae. Briefly: Antibacterial activity against Klebsiella pneumoniae MTCC 109 assessed as zone of inhibition at 1 mg/disc after 24 hrs by disc diffusion method. Type of test: functional.
Conditions: not given
Take `CN1C[C@](C#N)(C(=O)c2c[nH]c3ccccc23)[C@@H](c2cn(-c3ccccc3)nc2-c2ccccc2)[C@@]12C(=O)Nc1ccc([N+](=O)[O-])cc12`: the “inhibition zone (IZ)” value is recorded as 17 mm.

In the case of `C=CCN1C(=O)[C@]2(c3ccccc31)[C@H](c1cn(-c3ccccc3)nc1-c1ccccc1)[C@@](C#N)(C(=O)c1c[nH]c3ccccc13)C1CCCN12` (stereo not given in full), the “inhibition zone (IZ)” value turned out to be 9 mm.

A further test relates to Proteus vulgaris. Briefly: Antibacterial activity against Proteus vulgaris MTCC 1771 assessed as zone of inhibition at 1 mg/disc after 24 hrs by disc diffusion method. Type of test: functional.
Conditions: not given
With `CN1C[C@](C#N)(C(=O)c2c[nH]c3ccccc23)[C@@H](c2cn(-c3ccccc3)nc2-c2ccccc2)[C@@]12C(=O)Nc1ccc([N+](=O)[O-])cc12`, the “inhibition zone (IZ)” value stood at 14 mm.

With `C=CCN1C(=O)[C@]2(c3ccccc31)[C@H](c1cn(-c3ccccc3)nc1-c1ccccc1)[C@@](C#N)(C(=O)c1c[nH]c3ccccc13)C1CCCN12` (stereo not given in full), the “inhibition zone (IZ)” value turned out to be 10 mm.

For another test, the system named is Shigella flexneri. Briefly: Antibacterial activity against Shigella flexneri MTCC 1457 assessed as zone of inhibition at 1 mg/disc after 24 hrs by disc diffusion method. Type of test: functional.
Conditions: not given
As for `CN1C[C@](C#N)(C(=O)c2c[nH]c3ccccc23)[C@@H](c2cn(-c3ccccc3)nc2-c2ccccc2)[C@@]12C(=O)Nc1ccc([N+](=O)[O-])cc12`, the “inhibition zone (IZ)” value was found to be 20 mm.

The next test concerns Micrococcus luteus. Description: Antibacterial activity against Micrococcus luteus MTCC 106 assessed as zone of inhibition at 1 mg/disc after 24 hrs by disc diffusion method. Type of test: functional.
Conditions: not given
As for `CN1C[C@](C#N)(C(=O)c2c[nH]c3ccccc23)[C@@H](c2cn(-c3ccccc3)nc2-c2ccccc2)[C@@]12C(=O)Nc1ccc([N+](=O)[O-])cc12`, the “inhibition zone (IZ)” value came out at 18 mm.

For a further test, the system named is Klebsiella aerogenes. Description: Antibacterial activity against Enterobacter aerogenes MTCC 111 assessed as zone of inhibition at 1 mg/disc after 24 hrs by disc diffusion method. Type of test: functional.
Conditions: not given
With `CN1C[C@](C#N)(C(=O)c2c[nH]c3ccccc23)[C@@H](c2cn(-c3ccccc3)nc2-c2ccccc2)[C@@]12C(=O)Nc1ccc([N+](=O)[O-])cc12`, the “inhibition zone (IZ)” value worked out at 15 mm.

The next test deals with Staphylococcus epidermidis. Description: Antibacterial activity against Staphylococcus epidermidis MTCC 3615 assessed as zone of inhibition at 1 mg/disc after 24 hrs by disc diffusion method. Type of test: functional.
Conditions: not given
For the compound `CN1C[C@](C#N)(C(=O)c2c[nH]c3ccccc23)[C@@H](c2cn(-c3ccccc3)nc2-c2ccccc2)[C@@]12C(=O)Nc1ccc([N+](=O)[O-])cc12`, the “inhibition zone (IZ)” value turned out to be 15 mm.

A further test relates to Staphylococcus aureus. Description: Antibacterial activity against Staphylococcus aureus MTCC 96 assessed as zone of inhibition at 1 mg/disc after 24 hrs by disc diffusion method.
Conditions: not given
Type of test: functional.
On to `CN1C[C@](C#N)(C(=O)c2c[nH]c3ccccc23)[C@@H](c2cn(-c3ccccc3)nc2-c2ccccc2)[C@@]12C(=O)Nc1ccc([N+](=O)[O-])cc12`, for which the “inhibition zone (IZ)” value came out at 19 mm.

A further test has as its system Staphylococcus aureus. Briefly: Antibacterial activity against methicillin-resistant Staphylococcus aureus assessed as zone of inhibition at 1 mg/disc after 24 hrs by disc diffusion method.
Conditions: not given
Type of test: functional.
In the case of `CN1C[C@](C#N)(C(=O)c2c[nH]c3ccccc23)[C@@H](c2cn(-c3ccccc3)nc2-c2ccccc2)[C@@]12C(=O)Nc1ccc([N+](=O)[O-])cc12`, the “inhibition zone (IZ)” value was 18 mm.

The subject of the next test is Candida albicans. Briefly: Antifungal activity against Candida albicans MTCC 227 assessed as zone of inhibition at 1 mg/disc after 48 hrs by disc diffusion method. Type of test: functional.
Conditions: not given
Take `CN1C[C@](C#N)(C(=O)c2c[nH]c3ccccc23)[C@@H](c2cn(-c3ccccc3)nc2-c2ccccc2)[C@@]12C(=O)Nc1ccc([N+](=O)[O-])cc12`: the “inhibition zone (IZ)” value was 13 mm.

The test system of another test is Malassezia pachydermatis. Briefly: Antifungal activity against Malassezia pachydermatis assessed as zone of inhibition at 1 mg/disc after 48 hrs by disc diffusion method.
Conditions: not given
Type of test: functional.
Consider `CN1C[C@](C#N)(C(=O)c2c[nH]c3ccccc23)[C@@H](c2cn(-c3ccccc3)nc2-c2ccccc2)[C@@]12C(=O)Nc1ccc([N+](=O)[O-])cc12`, for which the “inhibition zone (IZ)” value came out at 8 mm.

For another test, the system named is Salmonella typhimurium. Briefly: Antibacterial activity against Salmonella typhimurium MTCC 1251 assessed as inhibition of visual growth after 24 hrs. Type of test: functional, Salmonella enterica subsp. enterica serovar Typhimurium. The settings on record: Salmonella enterica, MTCC 1251, 24 h.
As for `CN1C[C@](C#N)(C(=O)c2c[nH]c3ccccc23)[C@@H](c2cn(-c3ccccc3)nc2-c2ccccc2)[C@@]12C(=O)Nc1ccc([N+](=O)[O-])cc12`, the minimum inhibitory concentration (MIC) was 500 µg/mL (≈ 789 µM).

Consider `C=CCN1C(=O)[C@]2(c3ccccc31)[C@H](c1cn(-c3ccccc3)nc1-c1ccccc1)[C@@](C#N)(C(=O)c1c[nH]c3ccccc13)C1CCCN12` (stereo not given in full), for which the MIC stood at 500 µg/mL (≈ 764 µM).

For the next test, the system named is Klebsiella pneumoniae. Description: Antibacterial activity against Klebsiella pneumoniae MTCC 109 assessed as inhibition of visual growth after 24 hrs. Type of test: functional. The conditions noted are these: MTCC 109, 24 h.
On to `CN1C[C@](C#N)(C(=O)c2c[nH]c3ccccc23)[C@@H](c2cn(-c3ccccc3)nc2-c2ccccc2)[C@@]12C(=O)Nc1ccc([N+](=O)[O-])cc12`, for which the MIC is 500 µg/mL (≈ 789 µM).

Regarding `C=CCN1C(=O)[C@]2(c3ccccc31)[C@H](c1cn(-c3ccccc3)nc1-c1ccccc1)[C@@](C#N)(C(=O)c1c[nH]c3ccccc13)C1CCCN12` (stereo not given in full), the MIC was 500 µg/mL (≈ 764 µM).

A further test concerns Proteus vulgaris. Briefly: Antibacterial activity against Proteus vulgaris MTCC 1771 assessed as inhibition of visual growth after 24 hrs. Type of test: functional. The settings on record: MTCC 1771, 24 h.
Take `CN1C[C@](C#N)(C(=O)c2c[nH]c3ccccc23)[C@@H](c2cn(-c3ccccc3)nc2-c2ccccc2)[C@@]12C(=O)Nc1ccc([N+](=O)[O-])cc12`: the MIC was 250 µg/mL (≈ 395 µM).

Regarding `C=CCN1C(=O)[C@]2(c3ccccc31)[C@H](c1cn(-c3ccccc3)nc1-c1ccccc1)[C@@](C#N)(C(=O)c1c[nH]c3ccccc13)C1CCCN12` (stereo not given in full), the MIC is 250 µg/mL (≈ 382 µM).

The subject of a further test is Shigella flexneri. Briefly: Antibacterial activity against Shigella flexneri MTCC 1457 assessed as inhibition of visual growth after 24 hrs. The settings on record: MTCC 1457, 24 h. Type of test: functional.
On to `C=CCN1C(=O)[C@]2(c3ccccc31)[C@H](c1cn(-c3ccccc3)nc1-c1ccccc1)[C@@](C#N)(C(=O)c1c[nH]c3ccccc13)C1CCCN12` (stereo not given in full), for which the minimal inhibitory concentration (MIC) was determined as 250 µg/mL (≈ 382 µM).

For another test, the system named is Micrococcus luteus. Briefly: Antibacterial activity against Micrococcus luteus MTCC 106 assessed as inhibition of visual growth after 24 hrs. Type of test: functional. The conditions noted are these: MTCC 106, 24 h.
For the compound `CN1C[C@](C#N)(C(=O)c2c[nH]c3ccccc23)[C@@H](c2cn(-c3ccccc3)nc2-c2ccccc2)[C@@]12C(=O)Nc1ccc([N+](=O)[O-])cc12`, the MIC was 250 µg/mL (≈ 395 µM).

For the compound `C=CCN1C(=O)[C@]2(c3ccccc31)[C@H](c1cn(-c3ccccc3)nc1-c1ccccc1)[C@@](C#N)(C(=O)c1c[nH]c3ccccc13)C1CCCN12` (stereo not given in full), the MIC is 250 µg/mL (≈ 382 µM).

A further test has as its system Klebsiella aerogenes. Briefly: Antibacterial activity against Enterobacter aerogenes MTCC 111 assessed as inhibition of visual growth after 24 hrs. Type of test: functional. The conditions noted are these: MTCC 111, 24 h.
On to `CN1C[C@](C#N)(C(=O)c2c[nH]c3ccccc23)[C@@H](c2cn(-c3ccccc3)nc2-c2ccccc2)[C@@]12C(=O)Nc1ccc([N+](=O)[O-])cc12`, for which the MIC was found to be 500 µg/mL (≈ 789 µM).

For `C=CCN1C(=O)[C@]2(c3ccccc31)[C@H](c1cn(-c3ccccc3)nc1-c1ccccc1)[C@@](C#N)(C(=O)c1c[nH]c3ccccc13)C1CCCN12` (stereo not given in full), the minimum inhibitory concentration (MIC) came to 250 µg/mL (≈ 382 µM).

The next test has as its system Staphylococcus epidermidis. Briefly: Antibacterial activity against Staphylococcus epidermidis MTCC 3615 assessed as inhibition of visual growth after 24 hrs. Type of test: functional. The conditions noted are these: MTCC 3615, 24 h.
Turning to `CN1C[C@](C#N)(C(=O)c2c[nH]c3ccccc23)[C@@H](c2cn(-c3ccccc3)nc2-c2ccccc2)[C@@]12C(=O)Nc1ccc([N+](=O)[O-])cc12`, the MIC turned out to be 500 µg/mL (≈ 789 µM).

As for `C=CCN1C(=O)[C@]2(c3ccccc31)[C@H](c1cn(-c3ccccc3)nc1-c1ccccc1)[C@@](C#N)(C(=O)c1c[nH]c3ccccc13)C1CCCN12` (stereo not given in full), the MIC came to 125 µg/mL (≈ 191 µM).

In the next test the test system is Staphylococcus aureus. Briefly: Antibacterial activity against Staphylococcus aureus MTCC 96 assessed as inhibition of visual growth after 24 hrs. The conditions noted are these: MTCC 96, 24 h. Type of test: functional.
For the compound `CN1C[C@](C#N)(C(=O)c2c[nH]c3ccccc23)[C@@H](c2cn(-c3ccccc3)nc2-c2ccccc2)[C@@]12C(=O)Nc1ccc([N+](=O)[O-])cc12`, the minimal inhibitory concentration (MIC) worked out at 250 µg/mL (≈ 395 µM).

On to `C=CCN1C(=O)[C@]2(c3ccccc31)[C@H](c1cn(-c3ccccc3)nc1-c1ccccc1)[C@@](C#N)(C(=O)c1c[nH]c3ccccc13)C1CCCN12` (stereo not given in full), for which the MIC stood at 125 µg/mL (≈ 191 µM).

The subject of the next test is Staphylococcus aureus. Briefly: Antibacterial activity against methicillin-resistant Staphylococcus aureus assessed as inhibition of visual growth after 24 hrs. Type of test: functional.
Conditions: not given
Regarding `CN1C[C@](C#N)(C(=O)c2c[nH]c3ccccc23)[C@@H](c2cn(-c3ccccc3)nc2-c2ccccc2)[C@@]12C(=O)Nc1ccc([N+](=O)[O-])cc12`, the MIC came out at 125 µg/mL (≈ 197 µM).

Regarding `C=CCN1C(=O)[C@]2(c3ccccc31)[C@H](c1cn(-c3ccccc3)nc1-c1ccccc1)[C@@](C#N)(C(=O)c1c[nH]c3ccccc13)C1CCCN12` (stereo not given in full), the MIC is 250 µg/mL (≈ 382 µM).

The subject of a further test is Candida albicans. Description: Antifungal activity against Candida albicans MTCC 227 assessed as inhibition of visual growth after 48 to 72 hrs. Type of test: functional.
Conditions: not given
Consider `CN1C[C@](C#N)(C(=O)c2c[nH]c3ccccc23)[C@@H](c2cn(-c3ccccc3)nc2-c2ccccc2)[C@@]12C(=O)Nc1ccc([N+](=O)[O-])cc12`, for which the MIC was determined as 250 µg/mL (≈ 395 µM).

Regarding `C=CCN1C(=O)[C@]2(c3ccccc31)[C@H](c1cn(-c3ccccc3)nc1-c1ccccc1)[C@@](C#N)(C(=O)c1c[nH]c3ccccc13)C1CCCN12` (stereo not given in full), the MIC is 250 µg/mL (≈ 382 µM).

In another test the test system is Malassezia pachydermatis. Description: Antifungal activity against Malassezia pachydermatis assessed as inhibition of visual growth after 48 to 72 hrs. Type of test: functional.
Conditions: not given
With `CN1C[C@](C#N)(C(=O)c2c[nH]c3ccccc23)[C@@H](c2cn(-c3ccccc3)nc2-c2ccccc2)[C@@]12C(=O)Nc1ccc([N+](=O)[O-])cc12`, the MIC turned out to be 500 µg/mL (≈ 789 µM).

For `C=CCN1C(=O)[C@]2(c3ccccc31)[C@H](c1cn(-c3ccccc3)nc1-c1ccccc1)[C@@](C#N)(C(=O)c1c[nH]c3ccccc13)C1CCCN12` (stereo not given in full), the MIC was determined as 500 µg/mL (≈ 764 µM).
